Experimental data as given in PubChem BioAssay (NCI).
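Where inhibition never reached the appropriate level, the endpoint shown equals the highest concentration tested. Otherwise, values were interpolated linearly from a five-concentration, 48-hour dose response in 96-well plates. TGI marks complete inhibition of growth.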

Legend:
Assay in all cases: NCI tumour cell line growth inhibition, 48 h
U251 CNS = test system: U251 CNS
A498 renal = test system: A498 renal
MOLT-4 leukemia = test system: MOLT-4 leukemia
NCI-H23 lung = test system: NCI-H23 lung
BT-549 breast = test system: BT-549 breast
786-0 renal = test system: 786-0 renal
HCC-2998 colon = test system: HCC-2998 colon
SN12C renal = test system: SN12C renal
SF-539 CNS = test system: SF-539 CNS
ACHN renal = test system: ACHN renal
CAKI-1 renal = test system: CAKI-1 renal
M14 melanoma = test system: M14 melanoma
PC-3 prostate = test system: PC-3 prostate
NCI/ADR-RES ovarian = test system: NCI/ADR-RES ovarian
SK-MEL-28 melanoma = test system: SK-MEL-28 melanoma
HOP-92 NSCLC = test system: HOP-92 NSCLC
SK-MEL-5 melanoma = test system: SK-MEL-5 melanoma
UACC-62 melanoma = test system: UACC-62 melanoma
UO-31 renal = test system: UO-31 renal
COLO 205 colon = test system: COLO 205 colon
K-562 leukemia = test system: K-562 leukemia
UACC-257 melanoma = test system: UACC-257 melanoma
MDA-MB-435 = test system: MDA-MB-435
SK-OV-3 ovarian = test system: SK-OV-3 ovarian
CCRF-CEM leukemia = test system: CCRF-CEM leukemia
NCI-H522 lung = test system: NCI-H522 lung
A549 NSCLC = test system: A549 NSCLC
NCI-H226 lung = test system: NCI-H226 lung
HT29 colon = test system: HT29 colon
SF-268 CNS = test system: SF-268 CNS
SF-295 CNS = test system: SF-295 CNS
TK-10 renal = test system: TK-10 renal
HCT-15 colon = test system: HCT-15 colon
MALME-3M melanoma = test system: MALME-3M melanoma
HS 578T breast = test system: HS 578T breast
DU-145 prostate = test system: DU-145 prostate
HL-60(TB) leukemia = test system: HL-60(TB) leukemia
OVCAR-3 ovarian = test system: OVCAR-3 ovarian
OVCAR-5 ovarian = test system: OVCAR-5 ovarian
RPMI-8226 leukemia = test system: RPMI-8226 leukemia
SW-620 colon = test system: SW-620 colon
MDA-N = test system: MDA-N
HCT-116 colon = test system: HCT-116 colon
MCF7 breast = test system: MCF7 breast
OVCAR-4 ovarian = test system: OVCAR-4 ovarian
NCI-H460 lung = test system: NCI-H460 lung
SK-MEL-2 melanoma = test system: SK-MEL-2 melanoma
T-47D breast = test system: T-47D breast
OVCAR-8 ovarian = test system: OVCAR-8 ovarian
MDA-MB-231 breast = test system: MDA-MB-231 breast
SNB-19 CNS = test system: SNB-19 CNS
LOX IMVI melanoma = test system: LOX IMVI melanoma
IGROV1 ovarian = test system: IGROV1 ovarian
EKVX NSCLC = test system: EKVX NSCLC
KM12 colon = test system: KM12 colon
SNB-75 CNS = test system: SNB-75 CNS
HOP-62 NSCLC = test system: HOP-62 NSCLC
RXF 393 renal = test system: RXF 393 renal
SR leukemia = test system: SR leukemia

Compound: Cc1nn(C2OC(CO)C(O)C(F)C2O)c(=O)[nH]c1=O (stereo unspecified)
- TGI (U251 CNS): > 100 µM
- TGI (A498 renal): > 100 µM
- TGI (MOLT-4 leukemia): > 100 µM
- TGI (NCI-H23 lung): > 100 µM
- TGI (BT-549 breast): > 100 µM
- TGI (786-0 renal): > 100 µM
- TGI (HCC-2998 colon): > 100 µM
- TGI (SN12C renal): > 100 µM
- TGI (SF-539 CNS): > 100 µM
- TGI (ACHN renal): > 100 µM
- TGI (CAKI-1 renal): > 100 µM
- TGI (M14 melanoma): > 100 µM
- TGI (PC-3 prostate): > 100 µM
- TGI (NCI/ADR-RES ovarian): > 100 µM
- TGI (SK-MEL-28 melanoma): > 100 µM
- TGI (HOP-92 NSCLC): > 100 µM
- TGI (SK-MEL-5 melanoma): > 100 µM
- TGI (UACC-62 melanoma): > 100 µM
- TGI (UO-31 renal): > 100 µM
- TGI (COLO 205 colon): > 100 µM
- TGI (K-562 leukemia): > 100 µM
- TGI (UACC-257 melanoma): > 100 µM
- TGI (MDA-MB-435): > 100 µM
- TGI (SK-OV-3 ovarian): > 100 µM
- TGI (CCRF-CEM leukemia): > 100 µM
- TGI (NCI-H522 lung): > 100 µM
- TGI (A549 NSCLC): > 100 µM
- TGI (NCI-H226 lung): > 100 µM
- TGI (HT29 colon): > 100 µM
- TGI (SF-268 CNS): > 100 µM
- TGI (SF-295 CNS): > 100 µM
- TGI (TK-10 renal): > 100 µM
- TGI (HCT-15 colon): > 100 µM
- TGI (MALME-3M melanoma): > 100 µM
- TGI (HS 578T breast): > 100 µM
- TGI (DU-145 prostate): > 100 µM
- TGI (HL-60(TB) leukemia): > 100 µM
- TGI (OVCAR-3 ovarian): > 100 µM
- TGI (OVCAR-5 ovarian): > 100 µM
- TGI (RPMI-8226 leukemia): > 100 µM
- TGI (SW-620 colon): > 100 µM
- TGI (MDA-N): > 100 µM
- TGI (HCT-116 colon): > 100 µM
- TGI (MCF7 breast): > 100 µM
- TGI (OVCAR-4 ovarian): > 100 µM
- TGI (NCI-H460 lung): > 100 µM
- TGI (SK-MEL-2 melanoma): > 100 µM
- TGI (T-47D breast): > 100 µM
- TGI (OVCAR-8 ovarian): > 100 µM
- TGI (MDA-MB-231 breast): > 100 µM
- TGI (SNB-19 CNS): > 100 µM
- TGI (LOX IMVI melanoma): > 100 µM

Compound: CCCCc1ccc(Nc2cc(=O)n(C)c(=O)[nH]2)cc1
- TGI (U251 CNS): > 100 µM
- TGI (A498 renal): > 100 µM
- TGI (NCI-H23 lung): > 100 µM
- TGI (BT-549 breast): > 100 µM
- TGI (786-0 renal): > 100 µM
- TGI (HCC-2998 colon): > 100 µM
- TGI (SN12C renal): > 100 µM
- TGI (SF-539 CNS): > 100 µM
- TGI (ACHN renal): > 100 µM
- TGI (CAKI-1 renal): > 100 µM
- TGI (M14 melanoma): > 100 µM
- TGI (PC-3 prostate): > 100 µM
- TGI (IGROV1 ovarian): > 100 µM
- TGI (NCI/ADR-RES ovarian): > 100 µM
- TGI (SK-MEL-28 melanoma): > 100 µM
- TGI (HOP-92 NSCLC): > 100 µM
- TGI (SK-MEL-5 melanoma): > 100 µM
- TGI (UACC-62 melanoma): > 100 µM
- TGI (UO-31 renal): > 100 µM
- TGI (COLO 205 colon): > 100 µM
- TGI (K-562 leukemia): > 100 µM
- TGI (UACC-257 melanoma): > 100 µM
- TGI (MDA-MB-435): > 100 µM
- TGI (SK-OV-3 ovarian): > 100 µM
- TGI (EKVX NSCLC): > 100 µM
- TGI (NCI-H522 lung): > 100 µM
- TGI (A549 NSCLC): > 100 µM
- TGI (NCI-H226 lung): > 100 µM
- TGI (HT29 colon): > 100 µM
- TGI (SF-268 CNS): > 100 µM
- TGI (KM12 colon): > 100 µM
- TGI (SF-295 CNS): > 100 µM
- TGI (TK-10 renal): > 100 µM
- TGI (HCT-15 colon): > 100 µM
- TGI (MALME-3M melanoma): > 100 µM
- TGI (HS 578T breast): > 100 µM
- TGI (OVCAR-3 ovarian): > 100 µM
- TGI (SNB-75 CNS): > 100 µM
- TGI (OVCAR-5 ovarian): > 100 µM
- TGI (RPMI-8226 leukemia): > 100 µM
- TGI (SW-620 colon): > 100 µM
- TGI (MDA-N): > 100 µM
- TGI (HCT-116 colon): > 100 µM
- TGI (HOP-62 NSCLC): > 100 µM
- TGI (MCF7 breast): 72.9 µM
- TGI (OVCAR-4 ovarian): > 100 µM
- TGI (RXF 393 renal): > 100 µM
- TGI (NCI-H460 lung): > 100 µM
- TGI (SK-MEL-2 melanoma): > 100 µM
- TGI (T-47D breast): > 100 µM
- TGI (OVCAR-8 ovarian): > 100 µM
- TGI (MDA-MB-231 breast): > 100 µM
- TGI (SNB-19 CNS): > 100 µM
- TGI (LOX IMVI melanoma): > 100 µM

Compound: CC(C)(C)C1CCC2c3c([nH]c4ccccc34)C3C(=O)N(c4cccc([N+](=O)[O-])c4)C(=O)C3C2C1 (stereo unspecified)
- TGI (SR leukemia): > 100 µM
- TGI (U251 CNS): > 100 µM
- TGI (A498 renal): > 100 µM
- TGI (MOLT-4 leukemia): > 100 µM
- TGI (NCI-H23 lung): > 100 µM
- TGI (BT-549 breast): 40 µM
- TGI (786-0 renal): 43.7 µM
- TGI (HCC-2998 colon): 63.4 µM
- TGI (SN12C renal): 25.5 µM
- TGI (SF-539 CNS): > 100 µM
- TGI (ACHN renal): > 100 µM
- TGI (CAKI-1 renal): 54.2 µM
- TGI (M14 melanoma): > 100 µM
- TGI (PC-3 prostate): > 100 µM
- TGI (IGROV1 ovarian): > 100 µM
- TGI (NCI/ADR-RES ovarian): 74.2 µM
- TGI (SK-MEL-28 melanoma): > 100 µM
- TGI (HOP-92 NSCLC): > 100 µM
- TGI (UACC-62 melanoma): > 100 µM
- TGI (UO-31 renal): > 100 µM
- TGI (COLO 205 colon): 73.6 µM
- TGI (K-562 leukemia): > 100 µM
- TGI (UACC-257 melanoma): 61.6 µM
- TGI (MDA-MB-435): 81.5 µM
- TGI (SK-OV-3 ovarian): > 100 µM
- TGI (EKVX NSCLC): 66.8 µM
- TGI (CCRF-CEM leukemia): > 100 µM
- TGI (NCI-H522 lung): 48.8 µM
- TGI (A549 NSCLC): > 100 µM
- TGI (NCI-H226 lung): 53.1 µM
- TGI (HT29 colon): > 100 µM
- TGI (SF-268 CNS): 77.6 µM
- TGI (KM12 colon): 25.3 µM
- TGI (SF-295 CNS): > 100 µM
- TGI (TK-10 renal): > 100 µM
- TGI (HCT-15 colon): > 100 µM
- TGI (MALME-3M melanoma): 59.7 µM
- TGI (DU-145 prostate): > 100 µM
- TGI (OVCAR-3 ovarian): > 100 µM
- TGI (SNB-75 CNS): > 100 µM
- TGI (OVCAR-5 ovarian): > 100 µM
- TGI (SW-620 colon): > 100 µM
- TGI (MDA-N): 45.7 µM
- TGI (HCT-116 colon): 40.4 µM
- TGI (HOP-62 NSCLC): 99.4 µM
- TGI (MCF7 breast): > 100 µM
- TGI (OVCAR-4 ovarian): > 100 µM
- TGI (RXF 393 renal): > 100 µM
- TGI (NCI-H460 lung): > 100 µM
- TGI (SK-MEL-2 melanoma): 64.1 µM
- TGI (T-47D breast): > 100 µM
- TGI (OVCAR-8 ovarian): > 100 µM
- TGI (MDA-MB-231 breast): 92.3 µM
- TGI (SNB-19 CNS): > 100 µM
- TGI (LOX IMVI melanoma): 49.8 µM
